This passage reports Ki and GI50 results from patent US11596639B2, “Substituted indole Mcl-1 inhibitors” (Vanderbilt University, priority 2016, dated 2023).

Structures are written as SMILES.

One test concerns the target Mcl-1 (Homo sapiens (Human), UniProt Q07820). In words: Fluorescence polarization anisotropy (FPA) competition assay, FITC-Bak or FITC-Bim BH3 peptide. It counts as binding. Conditions: read-out: Ki for Inhibition of Mcl-1 by FPA assay. (In general: In fluorescence polarisation assays a small probe gives low polarisation when free and higher when bound to something large.)

The test system of test [1] is H929 human cancer cell lines. In words: Cellular viability / proliferation (Cell TiterGlo, 72 h). It counts as cell-based. Conditions: Homo sapiens, NCI-H929, 72 h, read-out: GI50 on cellular proliferation of H929 human cancer cell lines, H929 cells, 72 h, Cell TiterGlo, 10% FBS. Summed up:
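Cells were seeded at 1,000 cells/well in medium with 10% FBS and dosed 24 h later with a 2-fold serial dilution of compound (top concentration 50 μM, final DMSO <1%).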
On the technique in general: ATP-based viability assays read luminescence as a measure of living cells.

Sequence of Mcl-1 (Q07820 172-327): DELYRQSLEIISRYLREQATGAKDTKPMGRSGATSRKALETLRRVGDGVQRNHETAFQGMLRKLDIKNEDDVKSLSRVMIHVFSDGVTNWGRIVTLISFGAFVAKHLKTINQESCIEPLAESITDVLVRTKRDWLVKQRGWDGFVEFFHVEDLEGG

Broadly, the Ki is the equilibrium dissociation constant of an inhibitor or competing ligand from its target. In the case of `Cc1cc(OCCCc2c3n(c4c(-c5c(C)nn(C)c5C)c(Cl)ccc24)CCCN(c2cc(C(=O)O)c4ccn(CCN5CCOCC5)c4c2)C3=O)cc(C)c1Cl` [Example 31, 6-(8-chloro-11-(3-(4-chloro-3,5-dimethylphenoxy)propyl)-1-oxo-7-(1,3,5-trimethyl-1H-pyrazol-4-yl)-4,5-dihydro-1H-[1,4]diazepino[1,2-a]indol-2(3H)-yl)-1-(2-morpholinoethyl)-1H-indole-4-carboxylic acid], at Mcl-1, the Ki was less than 1 nM. Further, the GI50 in test [1] turned out to be 1800 nM.
As to `Cc1cc(OCCCc2c3n(c4c(-c5c(C)nn(C)c5C)c(Cl)ccc24)CCCN(c2cc(C(=O)O)cc4c2ccn4S(C)(=O)=O)C3=O)cc(C)c1Cl` [Example 32, 4-(8-Chloro-11-(3-(4-chloro-3,5-dimethylphenoxy)propyl)-1-oxo-7-(1,3,5-trimethyl-1H-pyrazol-4-yl)-4,5-dihydro-1H-[1,4]diazepino[1,2-a]indol-2(3H)-yl)-1-(methylsulfonyl)-1H-indole-6-carboxylic acid], the Ki on Mcl-1 was less than 1 nM. The GI50 in test [1] worked out at 7600 nM.
Consider `Cc1cc(OCCCc2c3n(c4c(-c5c(C)nn(C)c5C)c(Cl)ccc24)[C@H](C)CN(c2cc(C(=O)O)cc4c2OCO4)C3=O)cc(C)c1Cl` [Example 33, (R)-7-(7-chloro-10-(3-(4-chloro-3,5-dimethylphenoxy)propyl)-4-methyl-1-oxo-6-(1,3,5-trimethyl-1H-pyrazol-4-yl)-3,4-dihydropyrazino[1,2-a]indol-2(1H)-yl)benzo[d][1,3]dioxole-5-carboxylic acid], for which the Ki on Mcl-1 was less than 1 nM. Moreover, in test [1], the GI50 is 650 nM.
For `Cc1cc(OCCCc2c3n(c4c(-c5c(C)nn(C)c5C)c(Cl)ccc24)CCCN(c2cc(C(=O)O)cc4nn(C)cc24)C3=O)cc(C)c1Cl` [Example 36, 4-[8-Chloro-11-[3-(4-chloro-3,5-dimethyl-phenoxy)propyl]-1-oxo-7-(1,3,5-trimethylpyrazol-4-yl)-4,5-dihydro-3H-[1,4]diazepino[1,2-a]indol-2-yl]-2-methyl-indazole-6-carboxylic acid], in that order: less than 1 nM and 2600 nM.
For `Cc1cc(OCCCc2c3n(c4c(-c5c(C)nn(C)c5C)c(Cl)ccc24)CCCN(c2nc(C(=O)O)n[nH]2)C3=O)cc(C)c1Cl` [Example 37, 5-(8-Chloro-11-(3-(4-chloro-3,5-dimethylphenoxy)propyl)-1-oxo-7-(1,3,5-trimethyl-1H-pyrazol-4-yl)-4,5-dihydro-1H-[1,4]diazepino[1,2-a]indol-2(3H)-yl)-1H-1,2,4-triazole-3-carboxylic acid], in that order: 3 nM and 1800 nM.
The corresponding values for `CCn1ncc2c(C(=O)O)cc(N3CCCn4c(c(CCCOc5cc(C)c(Cl)c(C)c5)c5ccc(Cl)c(-c6c(C)nn(C)c6C)c54)C3=O)cc21` [Example 39, 6-[8-chloro-11-[3-(4-chloro-3,5-dimethyl-phenoxy)propyl]-1-oxo-7-(1,3,5-trimethylpyrazol-4-yl)-4,5-dihydro-3H-[1,4]diazepino[1,2-a]indol-2-yl]-1-ethyl-indazole-4-carboxylic acid] are 1.1 nM and 920 nM.
With `CC[C@@H]1Cn2c(c(CCCOc3cc(C)c(Cl)c(C)c3)c3ccc(Cl)c(-c4c(C)nn(C)c4C)c32)C(=O)N1c1cc(C(=O)O)c2c(ccn2C)c1` [Example 41, (R)-5-(7-chloro-10-(3-(4-chloro-3,5-dimethylphenoxy)propyl)-3-ethyl-1-oxo-6-(1,3,5-trimethyl-1H-pyrazol-4-yl)-3,4-dihydropyrazino[1,2-a]indol-2(1H)-yl)-1-methyl-1H-indole-7-carboxylic acid], on Mcl-1, the Ki was found to be 1.8 nM. The GI50 in test [1] amounted to 1200 nM.
In the case of `Cc1cc(OCCCc2c3n(c4c(-c5c(C)nn(C)c5C)c(Cl)ccc24)CCCN(c2cc(C(=O)O)c4cn[nH]c4c2)C3=O)cc(C)c1Cl` [Example 44, 6-[8-chloro-11-[3-(4-chloro-3,5-dimethyl-phenoxy)propyl]-1-oxo-7-(1,3,5-trimethylpyrazol-4-yl)-4,5-dihydro-3H-[1,4]diazepino[1,2-a]indol-2-yl]-1H-indazole-4-carboxylic acid], on Mcl-1, the Ki was less than 1 nM. Besides, the GI50 in test [1] was determined as 14000 nM.
In the case of `Cc1cc(OCCCc2c3n(c4c(-c5c(C)nn(C)c5C)c(Cl)ccc24)CCCN(c2cc(C(=O)O)cc4c2cnn4C)C3=O)cc(C)c1Cl` [Example 45, 4-[8-chloro-11-[3-(4-chloro-3,5-dimethyl-phenoxy)propyl]-1-oxo-7-(1,3,5-trimethylpyrazol-4-yl)-4,5-dihydro-3H-[1,4]diazepino[1,2-a]indol-2-yl]-1-methyl-indazole-6-carboxylic acid], at Mcl-1, the Ki is 1.7 nM. For the same compound, in test [1], the GI50 is 3800 nM.
For `Cc1cc(OCCCc2c3n(c4c(-c5c(C)nn(C)c5C)c(Cl)ccc24)[C@H](C)CN(c2nn(C)c4cc(C(=O)O)ccc24)C3=O)cc(C)c1Cl` [Example 48, (R)-3-(7-chloro-10-(3-(4-chloro-3,5-dimethylphenoxy)propyl)-4-methyl-1-oxo-6-(1,3,5-trimethyl-1H-pyrazol-4-yl)-3,4-dihydropyrazino[1,2-a]indol-2(1H)-yl)-1-methyl-1H-indazole-6-carboxylic acid], in that order: less than 1 nM and 800 nM.
With `Cc1cc(OCCCc2c3n(c4c(-c5c(C)nn(C)c5C)c(Cl)ccc24)CCCN(c2nn(CCN4CCOCC4)c4cc(C(=O)O)ccc24)C3=O)cc(C)c1Cl` [Example 49, 3-(8-chloro-11-(3-(4-chloro-3,5-dimethylphenoxy)propyl)-1-oxo-7-(1,3,5-trimethyl-1H-pyrazol-4-yl)-4,5-dihydro-1H-[1,4]diazepino[1,2-a]indol-2(3H)-yl)-1-(2-morpholinoethyl)-1H-indazole-6-carboxylic acid], the Ki on Mcl-1 was less than 1 nM. Moreover, the GI50 in test [1] stood at 2600 nM.
Consider `Cc1cc(OCCCc2c3n(c4c(-c5c(C)nn(C)c5C)c(Cl)ccc24)[C@H](C)CN(c2nn(CCN4CCOCC4)c4cc(C(=O)O)ccc24)C3=O)cc(C)c1Cl` [Example 50, (R)-3-(7-chloro-10-(3-(4-chloro-3,5-dimethylphenoxy)propyl)-4-methyl-1-oxo-6-(1,3,5-trimethyl-1H-pyrazol-4-yl)-3,4-dihydropyrazino[1,2-a]indol-2(1H)-yl)-1-(2-morpholinoethyl)-1H-indazole-6-carboxylic acid], for which the Ki on Mcl-1 is less than 1 nM. Moreover, in test [1], the GI50 stood at 710 nM.
As for `Cc1cc(OCCCc2c3n(c4c(-c5c(C)nn(C)c5C)c(Cl)ccc24)[C@H](C)CN(c2ccc(C(=O)O)c4c2ccn4C)C3=O)cc(C)c1Cl` [Example 51, (R)-4-(7-chloro-10-(3-(4-chloro-3,5-dimethylphenoxy)propyl)-4-methyl-1-oxo-6-(1,3,5-trimethyl-1H-pyrazol-4-yl)-3,4-dihydropyrazino[1,2-a]indol-2(1H)-yl)-1-methyl-1H-indole-7-carboxylic acid], the Ki on Mcl-1 was less than 1 nM. In test [1], the GI50 came to 1500 nM.
For the compound `Cc1cc(OCCCc2c3n(c4c(-c5c(C)nn(C)c5C)c(Cl)ccc24)[C@H](C)CN(c2ccc(C(=O)O)c4ccn(C)c24)C3=O)cc(C)c1Cl` [Example 52, (R)-7-(7-chloro-10-(3-(4-chloro-3,5-dimethylphenoxy)propyl)-4-methyl-1-oxo-6-(1,3,5-trimethyl-1H-pyrazol-4-yl)-3,4-dihydropyrazino[1,2-a]indol-2(1H)-yl)-1-methyl-1H-indole-4-carboxylic acid], the Ki at Mcl-1 was less than 1 nM. The GI50 in test [1] was 470 nM.
The corresponding values for `Cc1cc(OCCCc2c3n(c4c(-c5c(C)nn(C)c5C)c(Cl)ccc24)[C@H](C)CN(c2cc(C(=O)O)c4cnn(C)c4c2)C3=O)cc(C)c1Cl` [Example 53, (R)-6-(7-chloro-10-(3-(4-chloro-3,5-dimethylphenoxy)propyl)-4-methyl-1-oxo-6-(1,3,5-trimethyl-1H-pyrazol-4-yl)-3,4-dihydropyrazino[1,2-a]indol-2(1H)-yl)-1-methyl-1H-indazole-4-carboxylic acid] are less than 1 nM and 500 nM.
For the compound `Cc1cc(OCCCc2c3n(c4c(-c5c(C)nn(C)c5C)c(Cl)ccc24)[C@H](C)CN(c2cccc4c(C(=O)O)n(C)nc24)C3=O)cc(C)c1Cl` [Example 54, (R)-7-(7-chloro-10-(3-(4-chloro-3,5-dimethylphenoxy)propyl)-4-methyl-1-oxo-6-(1,3,5-trimethyl-1H-pyrazol-4-yl)-3,4-dihydropyrazino[1,2-a]indol-2(1H)-yl)-2-methyl-2H-indazole-3-carboxylic acid], the Ki at Mcl-1 was less than 1 nM. In addition, the GI50 in test [1] was 320 nM.
The corresponding values for `Cc1cc(OCCCc2c3n(c4c(-c5c(C)nn(C)c5C)c(Cl)ccc24)[C@H](C)CN(c2cc(C(=O)O)c4cnn(CCN5CCOCC5)c4c2)C3=O)cc(C)c1Cl` [Example 56, (R)-6-(7-chloro-10-(3-(4-chloro-3,5-dimethylphenoxy)propyl)-4-methyl-1-oxo-6-(1,3,5-trimethyl-1H-pyrazol-4-yl)-3,4-dihydropyrazino[1,2-a]indol-2(1H)-yl)-1-(2-morpholinoethyl)-1H-indazole-4-carboxylic acid] are less than 1 nM and 810 nM.
The corresponding values for `Cc1cc(OCCCc2c3n(c4c(-c5c(C)nn(C)c5C)c(Cl)ccc24)[C@H](C)CN(c2cc(C(=O)O)c4cn(CCN5CCOCC5)nc4c2)C3=O)cc(C)c1Cl` [Example 57, (R)-6-(7-chloro-10-(3-(4-chloro-3,5-dimethylphenoxy)propyl)-4-methyl-1-oxo-6-(1,3,5-trimethyl-1H-pyrazol-4-yl)-3,4-dihydropyrazino[1,2-a]indol-2(1H)-yl)-2-(2-morpholinoethyl)-2H-indazole-4-carboxylic acid] are less than 1 nM and 1700 nM.
